“Also recorded” adds a separate entry of the source.
Columns and labels:
[1] = molecular target: Panx1 hemichannels (Homo sapiens, UniProt Q96RD7); details: cited from earlier work
[2] = system: macrophage hemichannel activities; assay: Lucifer Yellow uptake in LPS-stimulated macrophages; format: cell-based
[3] = system: Primary peritoneal macrophages; assay: LPS-induced NO production in primary peritoneal macrophages (Griess reaction); format: cell-based, murine; details: crude LPS, 16 h
[4] = molecular target: Cx43 gap junctions (Homo sapiens, UniProt P17302); details: cited from earlier work
[5] = molecular target: Panx1 hemichannel (Homo sapiens, UniProt Q96RD7); details: cited from earlier work
[6] = system: Primary peritoneal macrophages; assay: LPS-induced HMGB1 secretion in primary peritoneal macrophages (Western blotting); format: cell-based, murine; details: crude LPS, 16 h, extracellular HMGB1
Method: FIG. 2A-2C. […] AU, arbitrary units. *, P<0.05 versus “+LPS alone.”
Primary murine macrophages and human monocytes were employed to investigate the mechanisms underlying the regulation of HMGB1 secretion by various inflammatory stimuli. Primary peritoneal macrophages were isolated from Balb/C mice (male, 7-8 weeks, 20-25 grams) at 2-3 days after intraperitoneal injection of 2 ml thioglycollate broth (4%, Difco, Detroit, Mich.) as previously described (23,78). Human peripheral blood mononuclear cells (HuPBMCs) were isolated from human blood purchased from the New York (Long Island) Blood Bank (Melville, N.Y.) by density gradient centrifugation through Ficoll (Ficoll-Paque PLUS, Pharmacia, Piscataway, N.J.) as previously described (23,78,79). At 80-90% confluence, macrophage/monocyte cultures will be stimulated with divergent stimuli: ultrapure and crude LPS, CIRP 14, SAA (PeproTech, Cat. No. 300-13) at different concentrations and for various time periods (0, 6, 12, and 18 h). The expression levels of Cx43 or Panx1 hemichannel proteins in macrophage/monocyte cultures are determined by Western blotting or immunocytochemistry techniques as previously described (21,23,80).

[7] = system: Primary peritoneal macrophages; details: reference 49; cited from earlier work
[8] = system: PKR; assay: LPS-induced PKR expression and phosphorylation (Western blotting); format: cell-based, murine; details: crude LPS, 16 h, primary macrophages
[9] = in vivo; cited from earlier work
[10] = molecular target: Cx43 hemichannel (Homo sapiens, UniProt P17302); details: ATP release or dye uptake; cited from earlier work
[11] = system: connexin 43-gated hemichannel activities; assay: Lucifer Yellow dye uptake in LPS-stimulated RAW 264.7 cells; format: cell-based; details: LPS 16 h, LY 1 mg/ml 15 min
Method: FIG. 8. […] The Lucifer Yellow dye uptake was used to measure the connexin 43-gated hemichannel activities. […] Subsequently, cell cultures were incubated with Lucifer Yellow (LY, 1 mg/ml) for 15 min, and fixed with 2% paraformaldehyde following three extensive washes with 1× PBS. The number of cells with diffused fluorescent signals was counted under a fluorescence microscope. The cells containing punctuate fluorescent signals were excluded, as the punctuate signals likely resulted from phagocytosis (rather than passive diffusion through Cx43 hemichannels) of the LY dye.
The Lucifer Yellow dye uptake was used to measure the connexin 43-gated hemichannel activities. […] Subsequently, cell cultures were incubated with Lucifer Yellow (LY, 1 mg/ml) for 15 min, and fixed with 2% paraformaldehyde following three extensive washes with 1×PBS. The number of cells with diffused fluorescent signals was counted under a fluorescence microscope. The cells containing punctuate fluorescent signals were excluded, as the punctuate signals likely resulted from phagocytosis (rather than passive diffusion through Cx43 hemichannels) of the LY dye. […] Animal survival was assessed for up to two weeks, and the Kaplan-Meier method was used to compare the differences in mortality rates between groups. […]

[12] = system: C57BL/6 mice; assay: Hepatic ischemia/reperfusion injury, serum ALT and AST; format: in vivo; details: 10.0 mg/kg BW via internal jugular vein at beginning of reperfusion; 24 h
Method: FIG. 10. Intravenous administration of Cx43 peptide antagonist conferred protection against hepatic ischemia/reperfusion (I/R) injury. Male C57BL/6 mice (20-25 g) were subjected to hepatic ischemia/reperfusion by temporally clamping the hepatic artery and portal vein for 60 minutes, which typically produced ischemia in 70% of the liver. At the beginning of the reperfusion, 0.2 ml saline, P5 (ENVCYD; 10.0 mg/kg BW) or P5A (ENVSYD (SEQ ID NO:14); 10.0 mg/kg BW) was injected via the internal jugular vein. At 24 h after the onset of ischemia, animals were euthanized to harvest blood to measure serum levels of hepatic injury markers such as alanine aminotransferase (ALT) and aspartate aminotransferase (AST) using commercial kits.
Intravenous administration of Cx43 peptide antagonist conferred protection against hepatic ischemia/reperfusion (I/R) injury. Male C57BL/6 mice (20-25 g) were subjected to hepatic ischemia/reperfusion by temporally clamping the hepatic artery and portal vein for 60 minutes, which typically produced ischemia in 70% of the liver. At the beginning of the reperfusion, 0.2 ml saline, P5 (ENVCYD, 10.0 mg/kg BW) or P5A (ENVSYD (SEQ ID NO:14), 10.0 mg/kg) was injected via the internal jugular vein. […]

Panx1 hemichannels, sequence (Q96RD7 whole entry): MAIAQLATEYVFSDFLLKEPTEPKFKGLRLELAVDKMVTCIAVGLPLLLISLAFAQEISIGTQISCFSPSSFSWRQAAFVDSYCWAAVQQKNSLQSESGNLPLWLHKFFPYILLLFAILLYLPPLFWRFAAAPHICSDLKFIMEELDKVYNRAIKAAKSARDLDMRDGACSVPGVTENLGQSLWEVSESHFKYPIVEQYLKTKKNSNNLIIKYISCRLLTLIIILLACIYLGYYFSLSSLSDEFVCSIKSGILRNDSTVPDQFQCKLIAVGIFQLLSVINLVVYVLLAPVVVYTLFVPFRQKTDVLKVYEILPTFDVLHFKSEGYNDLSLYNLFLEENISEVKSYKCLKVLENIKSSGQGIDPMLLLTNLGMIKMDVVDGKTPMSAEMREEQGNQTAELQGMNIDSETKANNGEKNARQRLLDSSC
Panx1 hemichannel, sequence (Q96RD7 whole entry): as above
Cx43 gap junctions, sequence (P17302 whole entry): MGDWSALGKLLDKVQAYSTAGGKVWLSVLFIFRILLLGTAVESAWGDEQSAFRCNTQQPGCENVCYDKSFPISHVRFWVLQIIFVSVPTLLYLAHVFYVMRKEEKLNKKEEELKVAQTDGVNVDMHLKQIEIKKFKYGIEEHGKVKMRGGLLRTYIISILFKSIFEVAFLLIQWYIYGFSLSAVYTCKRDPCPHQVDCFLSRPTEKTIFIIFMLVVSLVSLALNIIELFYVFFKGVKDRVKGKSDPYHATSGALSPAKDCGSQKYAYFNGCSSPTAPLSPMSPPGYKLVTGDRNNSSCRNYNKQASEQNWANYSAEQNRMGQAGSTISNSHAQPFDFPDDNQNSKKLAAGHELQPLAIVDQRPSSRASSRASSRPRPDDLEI
Cx43 hemichannel, sequence (P17302 whole entry): as above

Compound: 10Panx: Panx1-specific mimetic inhibitory peptide, residues 74 to 83 of SEQ ID NO:16 (WRQAAFVDSY; HOMO SAPIENS)
- P2X7R-induced Panx1 hemichannel activation [1]: selectively attenuate

Compound: CC1(C)[C@@H](OC(=O)CCC(=O)O)CC[C@]2(C)[C@H]3C(=O)C=C4[C@@H]5C[C@@](C)(C(=O)O)CC[C@]5(C)CC[C@@]4(C)[C@]3(C)CC[C@@H]12 [CBX, carbenoxolone]
- EC50 [1]: 1 to 4 µM
- number of LY-positive cells ([2]; prolonged LPS stimulation, quiescent approximately 2%, LPS alone ~16%): 6-8%
- LPS (endotoxin)-induced NO production [3]: effectively suppressed; also recorded: remarkably inhibited
- EC50 [4]: 50 to 100 µM
- Panx1 hemichannel-mediated ATP release ([5]; CBX 10 μM, hypoxia, sheer stress, low oxygen tension): effectively inhibited
- ATP release from apoptotic cells ([5]; CBX >100 μM): uniformly attenuated
- LPS-induced HMGB1 secretion [6]: effectively suppressed; also recorded: dose-dependently abrogated; also recorded: remarkably inhibited
- concentrations of CBX used to abrogate LPS-induced HMGB1 secretion in macrophages [7]: 5 to 10 µM
- LPS-induced elevation of PKR expression and phosphorylation [8]: dose-dependently abrogated; also recorded: significantly attenuated

Compound: CC1(C)[C@@H](O[C@H]2O[C@H](C(=O)O)[C@@H](O)[C@H](O)[C@H]2O[C@@H]2O[C@H](C(=O)O)[C@@H](O)[C@H](O)[C@H]2O)CC[C@]2(C)[C@H]3C(=O)C=C4[C@@H]5C[C@@](C)(C(=O)O)CC[C@]5(C)CC[C@@]4(C)[C@]3(C)CC[C@@H]12 [GZA, glycyrrhizic acid]
- benefit in animal models of hepatitis, hepatic ischemia/reperfusion, toxin-induced liver injury, endotoxemia, colitis [9]: proven beneficial

Compound: Nc1ncnc2c1ncn2[C@@H](C=O)O[C@@H](C=O)COP(=O)(O)OP(=O)(O)OP(=O)(O)O [oATP]
- LPS-induced LY-uptake ([2]; data not shown): similarly inhibited
- LPS-induced HMGB1 secretion [6]: similarly inhibited
- LPS-induced elevation of PKR expression and phosphorylation [8]: significantly attenuated

Compound: CCCN(CCC)S(=O)(=O)c1ccc(C(=O)O)cc1 [probenecid]
- specificity for Panx1 (over Cx43) [1]: more specific inhibitor

Compound: Gap19: mimetic peptide KQIEIKKFK (SEQ ID NO:19), intracellular loop of Cx43 (HOMO SAPIENS)
- Cx43 hemichannel activities [10]: specifically inhibits
- Panx1 channel activity [1]: without affecting
- Cx43 gap junction communication [4]: without affecting

Compound: P5: peptide ENVCYD (SEQ ID NO:1), Cx43 peptide antagonist from extracellular loop 1 (listed as Homo Sapiens)
- bacterial endotoxin-induced Lucifer Yellow dye uptake [11]: significantly inhibited
- protection against hepatic I/R injury (serum ALT, AST) [12]: significant protection

Source: patent US11083777B2, “Hemichannel extracellular-domain specific agents for treating ischemia-reperfusion injury” (The Feinstein Institutes for Medical Research, priority 2015, dated 2021)
